# Measurements: PMC8474110 (Journal of Medicinal Chemistry, 2021)
# Counter-ions that a name gives are not always drawn. Like-named read-outs stand apart in the source and are kept apart here.
# How the values were obtained:
# [1] = molecular target: T1, σ2 receptor (Cavia porcellus, UniProt H0V073); conditions: guinea pig brain membranes; cited from earlier work
# T1 construct: the guinea pig brain membranes (300 μL, 360 μg protein) were incubated for 120 min at room temperature with 3 nM [^3H]-DTG; from tissue; host or cells: guinea pig brain membranes
# T1 sequence (H0V073 1-176): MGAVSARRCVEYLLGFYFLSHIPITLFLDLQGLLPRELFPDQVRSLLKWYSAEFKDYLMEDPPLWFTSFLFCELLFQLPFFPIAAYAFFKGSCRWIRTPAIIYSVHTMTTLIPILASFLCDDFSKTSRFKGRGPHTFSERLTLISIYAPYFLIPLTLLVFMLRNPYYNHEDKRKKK
# [2] = system: human UM 92-1 cells; experiment: Crystal violet proliferation assay in human UM 92-1 cells; assay type: cell-based; conditions: for effect on 92-1 cell proliferation compared to the vehicle control: VPA 2 mM, HP 10 μM, (±)-HP-mII 30 μM (predicted IC50 values); for effect alone on proliferation of human UM 92-1 cells: 2 μM
# Protocol: Then, actions on cell proliferation were examined by crystal violet staining (Figure 6).
# HREC and human 92-1 cell (seeded 4 × 10^3 and grown for 24 h at optimum culture conditions) proliferation was measured using crystal violet staining after treatment in 96-well plates with the indicated concentrations of chemicals for an additional 48 h. Control cells received an equal volume of vehicle (DMSO). At the end of the treatment, each well was washed with phosphate-buffered saline (PBS). Following this, the cells were fixed (in 4% paraformaldehyde) and stained with crystal violet solution (0.5% in 20% methanol for HREC or 1% aqueous solution for 92-1 cells). Subsequently, the plate was washed with water and left to dry. Crystal violet staining was evaluated by measuring the absorbance at 570 nm or 590 nm, after crystal violet extraction with 10% acetic acid (at room temperature for 10 min), with a microplate reader with the plate reader (Synergy 2-BioTek). For quantification, each assay was carried out in triplicate.
# [3] = system: HREC; conditions: cited from earlier work
# [4] = system: inoperable UM patients; parameters: method as in PMID 25315663, PMID 23218699, PMID 21880788; conditions: at 4 months; cited from earlier work
compound,measurement,setting,value
CCCC(CCC)C(=O)O[C@H](CCCN1CCC(O)(c2ccc(Cl)cc2)CC1)c1ccc(F)cc1 (as salt: oxalate) [(+)-1],melting point,,159 to 164 °C
CCCC(CCC)C(=O)O[C@@H](CCCN1CCC(O)(c2ccc(Cl)cc2)CC1)c1ccc(F)cc1 (as salt: oxalate) [(−)-1],melting point,,158 to 160 °C
"OC(CCCN1CCC(O)(c2ccc(Cl)cc2)CC1)c1ccc(F)cc1 (racemic) [(±)-HP-mII, haloperidol metabolite II]",Ki,[1],2.4 ± 0.7 nM
same,effect on 92-1 cell proliferation compared to the vehicle control,[2],significantly inhibited
same,"pIC50 ± SE, MTT viability test on HREC",[3]; 48 h,3.89 ± 0.04
same,"pIC50 ± SE, MTT viability test on HREC",[3]; 72 h,4.16 ± 0.03
O[C@@H](CCCN1CCC(O)(c2ccc(Cl)cc2)CC1)c1ccc(F)cc1 [(−)-4],Ki,[1],9.8 ± 1.8 nM
"c1ccc(CCN2CCCCC2)cc1 [AC927, 1-phenethylpiperidine, reference compound]",effect alone on proliferation of human UM 92-1 cells,[2],promote
"CC(C)=CCN1CC[C@]2(C)c3cc(O)ccc3C[C@H]1[C@H]2C [PTZ, (+)-pentazocine, reference compound]",effect alone on proliferation of human UM 92-1 cells,[2],promote
"CCCC(CCC)C(=O)O [VPA, valproic acid]",effect on 92-1 cell proliferation compared to the vehicle control,[2],significantly inhibited
same,"pIC50 ± SE, MTT viability test on HREC",[3]; 24 h,2.91 ± 0.01
same,"pIC50 ± SE, MTT viability test on HREC",[3]; 48 h,2.84 ± 0.03
same,"pIC50 ± SE, MTT viability test on HREC",[3]; 72 h,2.86 ± 0.01
"AFL: VEGF-trap aflibercept, a popular drug in ophthalmology",progression-free survival,[4],50%
